{"source": "patent EP4793271A1", "about": "“NEUROPROTECTIVE AGENT” (National Center of Neurology and Psychiatry, priority 2023, dated 2025)", "key": {"[1]": {"experiment": "Pharmacokinetic evaluation after single iv and po administration to mice", "type": "in vivo, C57BL/6J male mice", "conditions": "for AUC(0-inf) / AUC(0-t) / C0 / half-life / clearance / Vd / Cmax / Tmax: male, C57BL/6J, mouse, plasma; for clearance: read-out: CLtot (converted); for Vd: read-out: Vss; for volume of distribution: result in words", "protocol": "The concentrations of compound 35 and its metabolites in plasma were measured, and oral absorbability (bioavailability) was evaluated. Systemic clearance was calculated for the iv administration, and pharmacokinetic features were determined.\nThe concentrations of compound 76 and its metabolites in plasma were measured, and oral absorbability (bioavailability) was evaluated. Systemic clearance was calculated for the iv administration, and pharmacokinetic features were determined.\nThe concentration of compound 105 in plasma was measured, and oral absorbability (bioavailability: BA) was evaluated. A half-life, the volume of distribution in a stationary state, and systemic clearance, and the like were calculated for the iv administration, and pharmacokinetic features were determined."}, "hSARM1": {"target": "T1, hSARM1 (Homo sapiens, UniProt Q6SZW1)", "T1 sequence (Q6SZW1 28-724)": "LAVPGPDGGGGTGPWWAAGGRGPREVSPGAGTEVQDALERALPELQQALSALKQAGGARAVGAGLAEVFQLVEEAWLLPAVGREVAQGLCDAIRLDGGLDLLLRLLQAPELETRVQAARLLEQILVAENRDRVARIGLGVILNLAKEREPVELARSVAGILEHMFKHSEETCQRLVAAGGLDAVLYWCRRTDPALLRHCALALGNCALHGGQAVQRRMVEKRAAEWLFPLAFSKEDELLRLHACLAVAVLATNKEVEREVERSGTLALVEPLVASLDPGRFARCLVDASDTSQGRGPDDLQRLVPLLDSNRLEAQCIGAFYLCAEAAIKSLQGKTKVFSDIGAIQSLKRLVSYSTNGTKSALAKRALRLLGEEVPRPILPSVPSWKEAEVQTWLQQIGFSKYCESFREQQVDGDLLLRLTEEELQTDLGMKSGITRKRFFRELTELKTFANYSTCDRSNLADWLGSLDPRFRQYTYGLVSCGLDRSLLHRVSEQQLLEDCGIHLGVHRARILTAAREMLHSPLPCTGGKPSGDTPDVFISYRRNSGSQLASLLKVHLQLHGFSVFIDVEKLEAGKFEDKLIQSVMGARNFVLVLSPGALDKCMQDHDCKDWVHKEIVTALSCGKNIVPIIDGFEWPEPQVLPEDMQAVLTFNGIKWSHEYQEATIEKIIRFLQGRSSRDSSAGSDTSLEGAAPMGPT", "experiment": "Human SARM1 activity measurement in HEK293 cells transiently transfected with ΔN-hSARM1 (PC6 fluorescent probe)", "type": "cell-based", "parameters": "expressed in transfected cells; host or cells: HEK293, pcDNA3 expression vector", "conditions": "inhibition rate; compound 30 µM; PC6 50 µM; HEK293 cells expressing ΔN-hSARM1; approximately 48 hours from transfection; read-out: Evaluation on hSARM1 inhibitory", "outline": "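HEK293 cells in nicotinamide-free DMEM with 5 μM nicotinamide, transiently transfected with mitochondrial-targeting-deleted ΔN-hSARM1; PC6 base-exchange fluorescent probe (50 μM) plus compound (30 μM) added ~8 h post-transfection. Fluorescence (ex 405/em 525 nm) read ~48 h from transfection; inhibition % versus transfected DMSO control, untransfected background subtracted.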"}, "[2]": {"conditions": "1 mg/kg, iv 1 mg/5 ml/kg single dose"}, "[3]": {"conditions": "10 mg/kg, po 10 mg/10 ml/kg single dose"}}, "data": [{"molecule": "O=C(NCCCOCCOCCCNC(=O)c1cccnc1)c1cccnc1", "note": "[compound 35]", "values": [{"measurement": "AUC(0-inf)", "setting": "[1]; [2]", "value": 234, "unit": "ng·h/mL"}, {"measurement": "AUC(0-t)", "setting": "[1]; [2]", "value": 228, "unit": "ng·h/mL"}, {"measurement": "C0", "setting": "[1]; [2]", "value": 1600, "unit": "ng/mL"}, {"measurement": "half-life", "setting": "[1]; [2]", "value": 1.9, "unit": "h"}, {"measurement": "clearance", "setting": "[1]; [2]", "value": 71.4, "unit": "mL/min/kg"}, {"measurement": "Vd", "setting": "[1]; [2]", "value": 1.57, "unit": "L/kg"}, {"measurement": "AUC(0-inf)", "setting": "[1]; [3]", "value": 297, "unit": "ng·h/mL"}, {"measurement": "AUC(0-t)", "setting": "[1]; [3]", "value": 293, "unit": "ng·h/mL"}, {"measurement": "Cmax", "setting": "[1]; [3]", "value": 501, "unit": "ng/mL"}, {"measurement": "Tmax", "setting": "[1]; [3]", "value": 0.25, "unit": "h"}, {"measurement": "half-life", "setting": "[1]; [3]", "value": 1.89, "unit": "h"}, {"measurement": "volume of distribution", "setting": "[1]", "value": "large as compared with the amount of intercellular fluid"}, {"measurement": "inhibition at 30 µM", "setting": "hSARM1", "value": "> 75", "unit": "%"}]}, {"molecule": "CC(C)(C)C(=O)Nc1ccc(CNC(=O)c2cccnc2)cn1", "note": "[compound 76]", "values": [{"measurement": "AUC(0-inf)", "setting": "[1]; [2]", "value": 1160, "unit": "ng·h/mL"}, {"measurement": "AUC(0-t)", "setting": "[1]; [2]", "value": 1160, "unit": "ng·h/mL"}, {"measurement": "C0", "setting": "[1]; [2]", "value": 1940, "unit": "ng/mL"}, {"measurement": "half-life", "setting": "[1]; [2]", "value": 1.14, "unit": "h"}, {"measurement": "clearance", "setting": "[1]; [2]", "value": 14.6, "unit": "mL/min/kg"}, {"measurement": "Vd", "setting": "[1]; [2]", "value": 0.89, "unit": "L/kg"}, {"measurement": "AUC(0-inf)", "setting": "[1]; [3]", "value": 14200, "unit": "ng·h/mL"}, {"measurement": "AUC(0-t)", "setting": "[1]; [3]", "value": 14100, "unit": "ng·h/mL"}, {"measurement": "Cmax", "setting": "[1]; [3]", "value": 9850, "unit": "ng/mL"}, {"measurement": "Tmax", "setting": "[1]; [3]", "value": 0.25, "unit": "h"}, {"measurement": "half-life", "setting": "[1]; [3]", "value": 3.21, "unit": "h"}, {"measurement": "BA", "setting": "[1]; po 10 mg/10 ml/kg vs iv 1 mg/5 ml/kg, oral absorbability (bioavailability)", "value": 124, "unit": "%"}, {"measurement": "volume of distribution", "setting": "[1]", "value": "large"}, {"measurement": "inhibition at 30 µM", "setting": "hSARM1", "value": "> 50", "unit": "%"}]}, {"molecule": "O=C(NCc1ccc(NC(=O)c2ccccc2)nc1)c1cccnc1", "note": "[compound 105]", "values": [{"measurement": "AUC(0-inf)", "setting": "[1]; [2]", "value": 408, "unit": "ng·h/mL"}, {"measurement": "AUC(0-t)", "setting": "[1]; [2]", "value": 391, "unit": "ng·h/mL"}, {"measurement": "C0", "setting": "[1]; [2]", "value": 1050, "unit": "ng/mL"}, {"measurement": "half-life", "setting": "[1]; [2]", "value": 2.81, "unit": "h"}, {"measurement": "clearance", "setting": "[1]; [2]", "value": 40.9, "unit": "mL/min/kg"}, {"measurement": "Vd", "setting": "[1]; [2]", "value": 3.14, "unit": "L/kg"}, {"measurement": "AUC(0-inf)", "setting": "[1]; [3]", "value": 2420, "unit": "ng·h/mL"}, {"measurement": "AUC(0-t)", "setting": "[1]; [3]", "value": 2410, "unit": "ng·h/mL"}, {"measurement": "Cmax", "setting": "[1]; [3]", "value": 2520, "unit": "ng/mL"}, {"measurement": "Tmax", "setting": "[1]; [3]", "value": 0.25, "unit": "h"}, {"measurement": "half-life", "setting": "[1]; [3]", "value": 4.13, "unit": "h"}, {"measurement": "volume of distribution", "setting": "[1]", "value": "large as compared with the amount of intercellular fluid"}, {"measurement": "inhibition at 30 µM", "setting": "hSARM1", "value": "> 50", "unit": "%"}]}]}
